Source: patent publication US10568328B2, “Methods and compositions for weed control” (Monsanto Technology LLC, priority 2013, dated 2020)

System: Amaranthus palmeri plants (R22 glyphosate resistant biotype)
Test: OEP80 trigger dsRNA polynucleotides followed by 2X WMAX, injury rating (FIG. 1)
Format: in vivo
Settings: 8 nmol/plant, 0.5-1.0 percent Silwet L-77 and buffer, 2X WMAX one day later; rated 14 days after WMAX; baseline 40 percent
Method: FIG. 1. Treatment of Amaranthus palmeri with dsRNA trigger polynucleotides targeting OEP80.
The following procedure is used for all assays described in this example. Approximately four-week old Amaranthus palmeri plants (glyphosate-resistant Palmer amaranth, “R-22”) are used in this assay. Plants are treated with 0.5-1.0 percent Silwet L-77 solution freshly made with ddH2O. Two fully expanded leaves per plant (one cotyledon, one true leaf) are treated with the polynucleotide/Silwet L-77 solution. Final concentration for each dsRNA polynucleotide was 25 microM) unless otherwise stated. Twenty microliters of the solution are applied to the top surface of each of the two pre-treated leaves to provide a total of 40 microliters (1-4 nmol polynucleotide) for each plant.
Spray solutions are prepared the same day as spraying. Single oligonucleotide molecules are applied at rates between 0.04 and 0.18 mg/ml in 20 mM potassium phosphate buffer (pH 6.8) are added to spray solutions 15 to 50 minutes before spraying. One-to-two-ml spray solutions were applied using a custom low-dead-volume sprayer (“milli applicator”) at 8-30 gpa (gallons per acre) to one-to-four inch tall plants. Treated plants are place in a greenhouse set for either a 26.7/21.1° C. or 29.4/21.1° C. 14/10 hour temperature and supplemental light schedule. The amount of response relative to unsprayed treatments is collected at various time intervals up to 21 days after treatment.
A common spray nozzle used for all applications made with the track sprayer is the Turbo Teejet air induction nozzle (015) nozzle with air pressure set at a minimum of 20 psi (pounds per square inch or […]). This style nozzle is currently being utilized to lessen shear forces that can damage or otherwise change large macromolecules that can seen with other nozzle styles. The height of the spray nozzle is to be 16-18 inches above top of plant material. Treatments are to be made when plants reach the desired size, height or leaf stage.
Application rates are chosen so as to achieve percent control ratings in the range of 50 percent at the lowest rate to 90 percent control at the highest rate. The rates in this control range provide the best possible efficacy comparisons among formulations, allowing separation of relative performance of test samples. The rate of herbicide used in these studies is typically at the manufacturer's recommended use rate. On occasion lower or higher rates may be necessary depending on test objectives. The rate structure used for a given test will be dependent on the environmental conditions at the time of spray application (time of year), the plant species being treated (highly susceptible or tough to kill) and age (or size) of plants to be treated.
Amaranthus palmeri plants (R22 glyphosate resistant biotype) were treated following the protocol described in Example 3. Trigger dsRNA polynucleotides shown in Table 5 (SEQ ID NO: 1535-1573, plus strand sequence illustrated) are targeting the A. palmeri OEP80 gene coding region (SEQ ID NO: 365). The polynucleotides were topically applied at 8 nmol/plant in a composition comprising 0.5-1.0 percent Silwet L-77 and buffer followed one day later by treatment with 2× WeatherMAX (WMAX). Injury rating of the treated plants was conducted 14 days after the WMAX treatment. The control treatments were buffer alone and 2 rates (4 nmol and 8 nmol) of a trigger polynucleotide (oligo 5.3) targeting the A. palmeri EPSPS coding gene sequence. The average baseline level of injury effect of buffer plus WMAX was set at 40 percent for this experiment. […] Additionally, 4 regions of the target gene sequence were identified in which the polynucleotides in those regions were particularly effective, these regions are between nucleotide positions 369-701, 1016-1168, 1364-1622 and 1683-1792 of SEQ ID NO: 365.

Molecule | Injury rating: enhancement of the effect of WMAX (FIG. 1)
T25452: A. palmeri OEP80 trigger dsRNA polynucleotide, SEQ ID NO: 1542 (GGAGGCATTAATGGCATTGAAAGCTTGCCGGGCGAATTCAGCTTTGACTGTGC; double-stranded RNA trigger, chemistry not given here, further chemistry not given here; listed as Amaranthus palmeri) [Oligo T25452] | able to enhance the effect of WMAX
T25455: A. palmeri OEP80 trigger dsRNA polynucleotide, SEQ ID NO: 1545 (GCGAAGGAGCTAATGTTCTCCCTTCCAAGTTTGTAGAGGATTCATTTC; double-stranded RNA trigger, chemistry not given here, further chemistry not given here; listed as Amaranthus palmeri) [Oligo T25455] | able to enhance the effect of WMAX
T25456: A. palmeri OEP80 trigger dsRNA polynucleotide, SEQ ID NO: 1546 (GTGATGGATATGGGAAAGTGGTCAATATCAGGCGTTTGGATGAAGTGATTGATTC; double-stranded RNA trigger, chemistry not given here, further chemistry not given here; listed as Amaranthus palmeri) [Oligo T25456] | able to enhance the effect of WMAX
T25457: A. palmeri OEP80 trigger dsRNA polynucleotide, SEQ ID NO: 1547 (GATTCTATAAATGGATGGTACATGGAGCGTGGTCTTTTTGGCATGGTTTC; double-stranded RNA trigger, chemistry not given here, further chemistry not given here; listed as Amaranthus palmeri) [Oligo T25457] | able to enhance the effect of WMAX
T25464: A. palmeri OEP80 trigger dsRNA polynucleotide, SEQ ID NO: 1554 (GTTTCTCGGCTGGTGGTGGTATTTCGAGCGGGATAACGAGCGGACCGC; double-stranded RNA trigger, chemistry not given here, further chemistry not given here; listed as Amaranthus palmeri) [Oligo T25464] | able to enhance the effect of WMAX
T25465: A. palmeri OEP80 trigger dsRNA polynucleotide, SEQ ID NO: 1555 (GCTATCAGGTTTAATTGGAAGCTTTGCATATTCTCACAGGAATCTGTTTGGAAAAAATC; double-stranded RNA trigger, chemistry not given here, further chemistry not given here; listed as Amaranthus palmeri) [Oligo T25465] | able to enhance the effect of WMAX
T25466: A. palmeri OEP80 trigger dsRNA polynucleotide, SEQ ID NO: 1556 (GAAAAAATCAAAAAGTAAATGTCTCTCTTGAAAGAGGCCAAATCGACTCTATCTTCC; double-stranded RNA trigger, chemistry not given here, further chemistry not given here; listed as Amaranthus palmeri) [Oligo T25466] | able to enhance the effect of WMAX
T25471: A. palmeri OEP80 trigger dsRNA polynucleotide, SEQ ID NO: 1561 (GACTTACGTTTCAGCATGCTGGTGTCCGTGATGAAAAAGGGAACCCCGTC; double-stranded RNA trigger, chemistry not given here, further chemistry not given here; listed as Amaranthus palmeri) [Oligo T25471] | able to enhance the effect of WMAX
T25473: A. palmeri OEP80 trigger dsRNA polynucleotide, SEQ ID NO: 1563 (GCTGCTTGCCAAAGGCGAGTGTGCCTACACGGGTGACTTAGGATCCTCAATGTTAGTC; double-stranded RNA trigger, chemistry not given here, further chemistry not given here; listed as Amaranthus palmeri) [Oligo T25473] | able to enhance the effect of WMAX
T25474: A. palmeri OEP80 trigger dsRNA polynucleotide, SEQ ID NO: 1564 (GTCTTAAGCATGGAACAAGGTCTTCCTATCTATCCTGAGTGGCTGTGTTTTAATC; double-stranded RNA trigger, chemistry not given here, further chemistry not given here; listed as Amaranthus palmeri) [Oligo T25474] | able to enhance the effect of WMAX
T25475: A. palmeri OEP80 trigger dsRNA polynucleotide, SEQ ID NO: 1565 (GTTTTAATCGAGTCAACGCTCGTGCTAGGTCAGGGGTGGACATTGGTCCAGC; double-stranded RNA trigger, chemistry not given here, further chemistry not given here; listed as Amaranthus palmeri) [Oligo T25475] | able to enhance the effect of WMAX
T25477: A. palmeri OEP80 trigger dsRNA polynucleotide, SEQ ID NO: 1567 (GTTTGCGATCGGTGGTACAAATAGTGTGAGAGGATATGAAGAAGGTGCCGTTGGC; double-stranded RNA trigger, chemistry not given here, further chemistry not given here; listed as Amaranthus palmeri) [Oligo T25477] | able to enhance the effect of WMAX
T25478: A. palmeri OEP80 trigger dsRNA polynucleotide, SEQ ID NO: 1568 (GCTCAGGCCTTTCATACGTAGTGGGCTGTGGAGAAGTTTCCTTCCCTCTGTATGGTC; double-stranded RNA trigger, chemistry not given here, further chemistry not given here; listed as Amaranthus palmeri) [Oligo T25478] | able to enhance the effect of WMAX
T29213: A. palmeri OEP80 trigger dsRNA polynucleotide, SEQ ID NO: 1573 (GGATATGAAGAAGGTGCCGTTGGC; double-stranded RNA trigger, chemistry not given here, further chemistry not given here; listed as Amaranthus palmeri) [Oligo T29213] | able to enhance the effect of WMAX
T25454: A. palmeri OEP80 trigger dsRNA polynucleotide, SEQ ID NO: 1544 (nucleic acid, listed as Amaranthus palmeri, double-stranded RNA trigger, chemistry not given here, further chemistry not given here) GATACTAGGGATGGTATTAGATTGGTCTTTCAGGTAGAACCAAACCAGGAGTTTAGAGGACTGGTGTGC | able to enhance the effect of WMAX
T25472: A. palmeri OEP80 trigger dsRNA polynucleotide, SEQ ID NO: 1562 (nucleic acid, listed as Amaranthus palmeri, double-stranded RNA trigger, chemistry not given here, further chemistry not given here) GTCATAAAAGATTTCTACAACAGCGCTCTTACGGCAAGTGGGAATACTCATGATAATATGC | able to enhance the effect of WMAX
